According to patent publication US4704399A, “1,3-dioxan-4-ylalkenoic acids” (Imperial Chemical Industries PLC, priority 1983, dated 1987):

Experiments:
[1] = system: rabbit aortal strip, agonist TXA2 mimetic agent U46619; assay: rabbit aortal strip model, test (a); set-up: species or system isolated tissue
Text: (a) The rabbit aortal strip model devised by Piper and Vane (Nature, 1969, 223, 29-35) using as agonist the TXA2 mimetic agent known as U46619 (R. L. Jones et alia in "Chemistry, Biochemistry and Pharmacological Activity of Prostanoids", eds. S. M. Roberts and F. Scheinmann, at p.211; Pergamon Press, 1979);

[2] = system: bronchoconstriction induced by TXA2 mimetic agent U46619; assay: bronchoconstriction test, Konzett-Rossler guinea-pig model, test (c); format: in vivo; conditions: some 3 hours following an oral dose of 5mg/kg, U46619 i.v. 1-1.5 μg/kg
Description: (c) a bronchoconstriction test involving measuring the inhibition by a test compound of the bronchoconstriction induced in the Konzett-Rossler guinea-pig model (as modified by Collier and James, Brit. J. Pharmacol., 1967, 30, 283-307) by intravenous administration of the TXA2 mimetic agent, U46619 at 1-1.5 μg/kg.

[3] = system: hypertensive effect of TXA2 mimetic agent U46619; assay: U46619-induced hypertensive effect in anaesthetised rats, test (d); format: in vivo, rats (Alderley Park strain)
Description: (d) Male rats (Alderley Park strain) are anaesthetised with sodium pentobarbital and blood pressure is monitored at the carotid artery. The TXA2 mimetic agent U46619 is administered intravenously via the jugular vein and an ED50 (dose necessary to produce 50% of the maximum hypertensive effect) is established (n=3). The ED50 for U46619 is approximately 5 μg/kg. A test compound is then administered either intravenously via the jugular vein or orally via a cannula directly into the stomach and the animal challenged with an ED50 dose of U46619, five minutes after dosing with test compound and then successively every ten minutes until the hypertensive effect of U46619 is no longer blocked.

Structure (SMILES): CCC[C@H]1OC[C@H](c2ccccc2C)[C@@H](CCCCCCC(=O)O)O1 (relative stereo) [Example 12, 7-([2,4-cis,4,5-trans]-2-n-propyl-5-o-tolyl-1,3-dioxan-4-yl)heptanoic acid]
- pA2 [1]: 6.7
- reduction of bronchoconstriction [2]: significant reduction of bronchoconstriction
- inhibition of the hypertensive effect ([3]; test (d), 80-90 minutes following an oral dose of 50 mg./kg., challenge with ED50 dose of U46619): complete inhibition of the hypertensive effect

Structure (SMILES): CCCCC[C@H](O)/C=C/[C@@H]1[C@@H](C/C=C\CCCC(=O)O)[C@H]2CO[C@@H]1C2 [Example U46619, reference compound]
- ED50 ([3]; Rattus norvegicus, iv, intravenously via the jugular vein, anaesthetised male rats, n=3, read-out: ED50 (dose necessary to produce 50% of the maximum hypertensive effect)): ~5 µg/kg
